Measurements taken from the NIST ThermoML archive (doi:10.1021/je301147k).

Test: mn = molality of the nth substance listed, in mol/kg
Settings: for electrical conductivity: 100 kPa, Liquid, CyberScan CON1500 Bench Conductivity Meter; for surface tension liquid-gas: 298.2 K, Ring tensiometer

CCCCCCCCCCCCn1cc[n+](C)c1.[Br-] [1-dodecyl-3-methylimidazolium bromide] + O
electrical conductivity [S/m]
Settings	288.15 K	293.15 K	298.15 K	303.15 K
m1 = 0.001	0.00769	0.00898	0.01	0.0112
m1 = 0.002	0.0157	0.0181	0.0198	0.0223
m1 = 0.003	0.0224	0.0261	0.029	0.032
m1 = 0.004	0.0302	0.0345	0.0386	0.0427
m1 = 0.005	0.0379	0.043	0.048	0.0519
m1 = 0.006	0.0445	0.0504	0.0563	0.0626
m1 = 0.007	0.052	0.0589	0.0655	0.0728
m1 = 0.008	0.0589	0.0664	0.0741	0.0824
m1 = 0.009	0.0657	0.074	0.0823	0.0916
m1 = 0.01	0.0717	0.0814	0.0909	0.101
m1 = 0.011	0.0758	0.0853	0.0963	0.107
m1 = 0.012	0.0776	0.0876	0.0986	0.111
m1 = 0.013	0.0799	0.0907	0.102	0.116
m1 = 0.014	0.0814	0.0922	0.104	0.118
m1 = 0.015	0.0837	0.0947	0.107	0.122
m1 = 0.016	0.0854	0.0966	0.11	0.124
m1 = 0.017	0.0874	0.0986	0.112	0.127
m1 = 0.018	0.0882	0.0998	0.113	0.129
m1 = 0.019	0.0893	0.101	0.115	0.131
m1 = 0.02	0.0913	0.104	0.118	0.134
m1 = 0.021	0.0923	0.106	0.12	0.136
m1 = 0.022	0.0935	0.107	0.122	0.139
m1 = 0.023	0.0948	0.109	0.125	0.141
m1 = 0.024	0.0964	0.111	0.127	0.144
m1 = 0.025	0.0985	0.112	0.129	0.146

Settings	surface tension liquid-gas [mN/m]
m1 = 0.0005	68.38
m1 = 0.001	62.44
m1 = 0.002	58.12
m1 = 0.004	51.39
m1 = 0.006	43.7
m1 = 0.008	40.35
m1 = 0.01	36.83
m1 = 0.012	36.51
m1 = 0.014	36.56
m1 = 0.016	36.65
m1 = 0.018	36.6
m1 = 0.02	36.57
m1 = 0.025	36.54
m1 = 0.03	36.48
m1 = 0.04	36.67
m1 = 0.05	36.67

CCCCCCCCCCCC[n+]1ccn(C)c1.[Cl-] [1-dodecyl-3-methylimidazolium chloride] + O
electrical conductivity [S/m]
Settings	288.15 K	293.15 K	298.15 K	303.15 K
m1 = 0.001	0.00787	0.00877	0.00992	0.0109
m1 = 0.002	0.0149	0.0166	0.0187	0.0207
m1 = 0.003	0.0219	0.0245	0.0273	0.0304
m1 = 0.004	0.0289	0.0324	0.0367	0.0408
m1 = 0.005	0.0355	0.0401	0.0448	0.0503
m1 = 0.006	0.0433	0.0481	0.054	0.0598
m1 = 0.007	0.0491	0.0548	0.0617	0.0687
m1 = 0.008	0.0562	0.0637	0.071	0.0787
m1 = 0.009	0.0633	0.0711	0.0795	0.0885
m1 = 0.01	0.0688	0.0778	0.0871	0.0961
m1 = 0.011	0.0764	0.0861	0.0964	0.107
m1 = 0.012	0.0832	0.0934	0.105	0.117
m1 = 0.013	0.0886	0.0991	0.112	0.124
m1 = 0.014	0.095	0.106	0.118	0.132
m1 = 0.015	0.1	0.112	0.126	0.14
m1 = 0.016	0.105	0.117	0.131	0.145
m1 = 0.017	0.107	0.12	0.136	0.15
m1 = 0.018	0.111	0.125	0.14	0.155
m1 = 0.019	0.115	0.129	0.144	0.16
m1 = 0.02	0.117	0.132	0.146	0.165
m1 = 0.021	0.12	0.135	0.15	0.169
m1 = 0.022	0.122	0.137	0.154	0.173
m1 = 0.023	0.125	0.141	0.158	0.178
m1 = 0.024	0.128	0.144	0.162	0.181
m1 = 0.025	0.131	0.147	0.166	0.185

Settings	surface tension liquid-gas [mN/m]
m1 = 0.001	69.37
m1 = 0.002	63.46
m1 = 0.004	58.36
m1 = 0.006	53.85
m1 = 0.01	47.71
m1 = 0.014	43.05
m1 = 0.018	38.43
m1 = 0.02	38.26
m1 = 0.025	38.38
m1 = 0.03	38.61
m1 = 0.04	38.35
m1 = 0.05	38.55

CCCCCCCCCCCCn1cc[n+](C)c1.[I-] [1-dodecyl-3-methylimidazolium iodide] + O
electrical conductivity [S/m]
Settings	288.15 K	293.15 K	298.15 K	303.15 K
m1 = 0.0005	0.00423	0.00497	0.00565	0.00618
m1 = 0.001	0.00828	0.00961	0.0108	0.0118
m1 = 0.002	0.0151	0.017	0.0191	0.0211
m1 = 0.003	0.0227	0.0255	0.0287	0.0316
m1 = 0.004	0.0292	0.0332	0.0373	0.0413
m1 = 0.005	0.0334	0.0388	0.0452	0.0506
m1 = 0.006	0.036	0.0418	0.0483	0.0552
m1 = 0.007	0.0368	0.0432	0.05	0.0579
m1 = 0.008	0.0378	0.0444	0.0516	0.0595
m1 = 0.009	0.0393	0.0459	0.0532	0.0614
m1 = 0.01	0.04	0.047	0.0543	0.0634
m1 = 0.011	0.0412	0.0485	0.0558	0.0653
m1 = 0.012	0.042	0.0502	0.0576	0.0672
m1 = 0.013	0.0425	0.0508	0.0589	0.0687
m1 = 0.014	0.0441	0.0519	0.06	0.0699
m1 = 0.015	0.0448	0.0535	0.0616	0.0712
m1 = 0.016	0.0458	0.0542	0.0631	0.0728
m1 = 0.017	0.0471	0.0556	0.0645	0.0739
m1 = 0.018	0.0483	0.0568	0.066	0.0758
m1 = 0.019	0.0489	0.0574	0.0667	0.0774
m1 = 0.02	0.0496	0.0582	0.0677	0.0784

Settings	surface tension liquid-gas [mN/m]
m1 = 0.0001	69.81
m1 = 0.0005	65.15
m1 = 0.001	56.7
m1 = 0.002	46.92
m1 = 0.003	38.08
m1 = 0.004	33.49
m1 = 0.005	31.45
m1 = 0.006	31.48
m1 = 0.007	31.39
m1 = 0.009	31.5
m1 = 0.012	31.6
m1 = 0.016	31.57
m1 = 0.02	31.66
